For test [1], the system named is WT (Col-0) Arabidopsis. Briefly: Root elongation / root growth-rate inhibition on MS with the substance, wild type. The test is classed as in vivo, Arabidopsis thaliana. From the text:
(§1) The Arabidopsis strains used were all in the Columbia-0 (Col-0) background. The gain of function lines psx00478 and psx08098 containing pBIG2113SF binary vector, expressing a single cDNA under 35S promoter, were ordered from FOX library (Takanari I. et al., 2006. ibid). Transgenic lines were generated using pBINPLUS (van Engelen F A et al., 1995. Transgenic Research 4, 288-290), in which AT2G19750 gene was cloned downstream of the 35S promoter, and transformed to WT Col-0 via Agrobacterium cv3101 mediated transformation. The presence of the transgene was confirmed by PCR with specific primers for S30. Seeds were cultivated in Petri plates using medium containing 0.8% agar, half-strength Murashige and Skoog salts (MS), and 1% sucrose, pH 5.7. The Petri plates were placed in chambers at 22° C. under light/dark conditions of 16 h white light at 75 mol m^2 sec^−1 and 8 h darkness, at 55% relative humidity. For root phenotype experiments, plates were placed vertically in the chambers.
To calculate the percentage of growth inhibition, seeds were germinated on MS containing the following concentrations of I3C: 0, 50, 100, 200, 300, 400, 500 and 750 μM. The root length of the seedlings was measured at days 3, 4, 5, 7 and 10. To calculate the percentage of growth inhibition, the slope of the regression lines for each concentration was used in the next equation: […]
To calculate the degree of tolerance to I3C, growth rates of WT and the I3CT1 strains were determined for increasing concentrations of I3C. Root length was measured at several time points over increasing I3C concentrations (FIG. 3). The growth rate of the WT and the I3CT1 transgenic lines was similar on MS; however, a growth rate of 3 and 2.3 times faster was observed on 400 μM I3C for the transgenic lines I3CT1^2 and I3CT1^8098 respectively. […] However, the growth rate of the WT was inhibited by 50% at about 50 μM while the growth rate of the I3CT1^2 and I3CR1^8098 transgenic lines was inhibited by 50% only when the I3C concentration was 300 μM and 200 μM respectively.
(§2) To test if overexpression of S30 causes tolerance specifically to I3C, or rather causes general tolerance to external chemical stress, root growth was tested with the addition of three groups of molecules to the growth medium: two subcategories of indole derivates: 1. Breakdown products of indol-3-acetaldoxime such as I3C, indol-3-acetic acid (IAA), and 3—Indoleacetonitril (IAN); and 2. breakdown products of I3C such as 3, 3Diindolylmethane (DIM), indole-3-carboxaldehyde (I3xA), and methyl Indole 3-carboxylate (MI3Cx). The third group contains benzoxazinoids: 2-Benzoxazolinon (BOA) and 6-Methoxy-2-benzoxazolinone (mBOA). Benzoxanoids are chemically unrelated to I3C, but with similar function of plant defense in gramineae (FIG. 4A). WT and the I3CT1 transgenic strains were assayed for root growth on 50% and 90% inhibition concentrations (IC) of the above molecules (Table 3).

In another test the test system is I3CT1 transgenic strains. The test is described as follows: Root growth of I3CT1 on 50% and 90% inhibition concentrations of plant defense molecules. The class given is in vivo, Arabidopsis thaliana. To be noted: FIG. 4B. On the procedure:
FIG. 4A: Plant defense molecules assayed: Breakdown products of indol-3-acetaldoxime (upper left panel), Breakdown products of I3C (lower panel), and benzoxazinoids (right panel). FIG. 4B: I3CT1 and WT were grown on 50% and 90% inhibition concentrations of the chemicals shown in μM. Data represent mean±SE.
as §2

For test [2], the system named is I3CT1^8098 transgenic line (S30 overexpressing). Briefly: Root growth-rate inhibition by I3C, transgenic line I3CT1^8098. The class given is in vivo, Arabidopsis thaliana. The following applies: I3CT1^8098 (printed I3CR1^8098).
Description: as §1, with “For root phenotype experiments, plates were placed vertically in the chambers.” left out
(§3) To calculate the percentage of growth inhibition, seeds were germinated on MS containing the following concentrations of I3C: 0, 50, 100, 200, 300, 400, 500 and 750 μM. The root length of the seedlings was measured at days 3, 4, 5, 7 and 10. […]
(§4) To calculate the degree of tolerance to I3C, growth rates of WT and the I3CT1 strains were determined for increasing concentrations of I3C. Root length was measured at several time points over increasing I3C concentrations (FIG. 3). […]

Test [3] relates to I3CT1^2 transgenic line (S30 overexpressing). Briefly: Root growth-rate inhibition by I3C, transgenic line I3CT1^2. The test is classed as in vivo, Arabidopsis thaliana. The following applies: I3CT1^2, root growth rate.
Description: as §1, with “For root phenotype experiments, plates were placed vertically in the chambers.” left out
as §3, §4

In test [4] the test system is WT (Col-0) Arabidopsis. The following applies: 400 μM I3C; cited from earlier work.
Test [5] deals with WT (Col-0) Arabidopsis. The test is described as follows: Root length on I3C, IAA and mixtures (auxin antagonism), WT. The test is classed as in vivo, Arabidopsis thaliana. On the procedure: I3CT1^2, I3CT1^8098 (FIG. 10A, designated as ICT1) and WT (FIG. 10B) plants were grown on three concentrations of I3C (50, 200, 500 μM), three concentrations of IAA (50, 200, 500 nM) and mixtures between the two. Root length was measured, and the mean root length of the transgenic lines I3CT1^2, I3CT1^8098 was calculated (presented as “I3CT1”). Three-way ANOVA was performed after SQRT transformation to obtain a normal distribution. FIG. 10C: The model of inhibition.
It was previously shown that I3C acts as an auxin antagonist on TIR1 (Katz et al., 2015b, ibid).

The mark [6] stands for this setting: Arabidopsis thaliana, root elongation, Table 3, read-out: substance concentration inhibiting root elongation by 50%.
Where [7] appears, read: read-out: I3C concentration at which growth rate was inhibited by 50%.
The mark [8] stands for this setting: root elongation, Table 3, read-out: substance concentration inhibiting root elongation by 50%.

“Also recorded” adds a separate entry of the source. Like-named read-outs stand apart in the source and are kept apart here.

`O=c1[nH]c2ccccc2o1` [BOA, 2-Benzoxazolinon]: the IC50 in the test with WT (Col-0) Arabidopsis [1] (Arabidopsis thaliana, read-out: substance concentration inhibiting root elongation by 50%) stood at 50 µM. For the same molecule, the “substance concentration inhibiting root elongation by 90%” value in the test with WT (Col-0) Arabidopsis [1] (root elongation, Table 3) was 400 µM.

For the molecule `c1ccc2c(Cc3c[nH]c4ccccc34)c[nH]c2c1` [DIM, 3,3′-Diindolylmethane], the “tolerance of I3CT1 to the chemical (root growth)” value (shortened to “tolerance of I3CT1”) in the test on I3CT1 transgenic strains is listed as “tolerance of the I3CT1 line was limited to three chemicals”. Also, the IC50 in the test on WT (Col-0) Arabidopsis [1] (setting [6]) turned out to be 60 µM. Moreover, the “substance concentration inhibiting root elongation by 90%” value in the test on WT (Col-0) Arabidopsis [1] (root elongation, Table 3) is 200 µM.

Regarding `OCc1c[nH]c2ccccc12` [I3C, Indole 3-carbinol], the “I3C concentration of 90% inhibition” value came out at 500 µM in test [2]; 750 µM in test [3]; 400 µM in the test with WT (Col-0) Arabidopsis [1] (WT, root growth rate). In addition, the IC50 is 200 µM in test [2] (setting [7]); 300 µM in test [3] (setting [7]); roughly 50 µM in the test on WT (Col-0) Arabidopsis [1] (WT, root growth rate, read-out: I3C concentration at which growth rate was inhibited by 50%); 100 µM in the test on WT (Col-0) Arabidopsis [1] (setting [8]). In addition, in the test with I3CT1 transgenic strains, the “tolerance of I3CT1” value is “tolerance of the I3CT1 line was limited to three chemicals”. The “inhibition of root elongation” value in the test with WT (Col-0) Arabidopsis [4] is 95%. Also, in the test with WT (Col-0) Arabidopsis [1] (all strains (WT and I3CT1 lines)), the “I3C concentration of maximum inhibition” value stood at 750 µM. Moreover, in the test with WT (Col-0) Arabidopsis [1] (root elongation, Table 3), the “substance concentration inhibiting root elongation by 90%” value was 400 µM. Moreover, in the test with WT (Col-0) Arabidopsis [5] (500 μM I3C), the “inhibition of root elongation by I3C itself” value is recorded as 95%. In addition, in the test on WT (Col-0) Arabidopsis [5] (50 and 200 μM I3C added to IAA, WT), the “rescue of IAA root-elongation inhibition by I3C” value is “rescues the IAA phenotype”.

`O=Cc1c[nH]c2ccccc12` [I3xA, Indole 3-Carboxalldehyde]: the “tolerance of I3CT1” value with I3CT1 transgenic strains was “did not exhibit any pronounced tolerance”. For the same molecule, the “substance concentration inhibiting root elongation by 90%” value in the test on WT (Col-0) Arabidopsis [1] (root elongation, Table 3) was found to be 300 µM. Besides, the IC50 in the test on WT (Col-0) Arabidopsis [1] (setting [8]) was determined as 140 µM.

As to `O=C(O)Cc1c[nH]c2ccccc12` [IAA, Indole-3-acetic acid], in the test with I3CT1 transgenic strains, the “tolerance of I3CT1” value is recorded as “tolerance of the I3CT1 line was limited to three chemicals; also recorded: slight tolerance”. For the same molecule, in the test with WT (Col-0) Arabidopsis [1] (setting [6]), the IC50 is 50 µM. Further, the “substance concentration inhibiting root elongation by 90%” value in the test on WT (Col-0) Arabidopsis [1] (root elongation, Table 3) amounted to 200 µM.

As for `N#CCc1c[nH]c2ccccc12` [IAN, Indole 3-acetonitril], the “tolerance of I3CT1” value in the test with I3CT1 transgenic strains was “did not exhibit any pronounced tolerance”. Further, in the test with WT (Col-0) Arabidopsis [1] (root elongation, Table 3), the “substance concentration inhibiting root elongation by 90%” value is 160 µM. Moreover, in the test with WT (Col-0) Arabidopsis [1] (setting [8]), the IC50 was 50 µM.

On to `COC(=O)c1c[nH]c2ccccc12` [MI3Cx, Methyl Indole 3-Carboxylate], for which the “tolerance of I3CT1” value with I3CT1 transgenic strains was “did not exhibit any pronounced tolerance”. Further, in the test on WT (Col-0) Arabidopsis [1] (setting [6]), the IC50 was found to be 200 µM. Besides, the “substance concentration inhibiting root elongation by 90%” value with WT (Col-0) Arabidopsis [1] (root elongation, Table 3) stood at 375 µM.

With `COc1ccc2[nH]c(=O)oc2c1` [mBOA, 6-Methoxy-2-benzoxazolinone], in the test with WT (Col-0) Arabidopsis [1] (setting [6]), the IC50 turned out to be 50 µM. Moreover, the “substance concentration inhibiting root elongation by 90%” value with WT (Col-0) Arabidopsis [1] (root elongation, Table 3) was 400 µM.

The record behind these values is patent US20230220410A1, “PLANTS TOLERANT TO BROAD RANGE OF PATHOGENS” (RAMOT AT TEL-AVIV UNIVERSITY LTD., priority 2020, published 2023).
